Data reported in paper PMC6268093, “Total Synthesis and Antidepressant Activities of Laetispicine and Its Derivatives” (Molecules, 2012).

What was measured:
[1] = tested on: forced swimming mice (immobility); experiment: Forced swimming test in mice; type: in vivo, KM mice; settings: for inhibition in vivo at 10 mg/kg: Mus musculus, po, mice, 10 mg/kg i.g., 100 × [(control − experiment)/control], read-out: Reduction (%) of immobility time vs control; for Antidepressant activity compared with laetispicine (in words): forced swimming test in mice, 10 mg/Kg
Protocol: KM mice (18–22 g) of either sex were obtained from Laboratory Animal Center of the College of Medicine, Fudan University. Animals were housed in standard environmental conditions with free access to food and water. The animals were used only once throughout the study. They were allowed to acclimatize to the laboratory seven days before pharmacological tests. The experiment procedures were conducted in compliance with the National Institutes of Health Guide for Care and Use of the laboratory Animals.
Tween 80 was purchased from Sinopharm Chemical Reagent Co., Ltd (Shanghai, China), fluoxetine from Shanghai Zhongxi Pharmaceutical Co., Ltd. All other reagents were of analytical grade. All drugs were dissolved in saline with 2% Tween 80. Drugs (10 mg/kg/2 mL) were administered by intragastric (i.g.) route 60 min before the forced swimming tests. The control group received only saline with 2% Tween 80 simultaneously.
The forced swimming test adopted here is a modification of the method described by Porsoltetal. Briefly, mice were individually forced to swim for 15 min in glass cylinders (height: 20 cm, diameter: 14 cm), containing 10 cm of water at 25 °C, which is a pre-test, and then mice were removed and dried before being returned to cages. Twenty-four hours later, mice were placed in the cylinders again for a 6-min test in the same system depicted above. The duration of immobility was recorded during the last 4 min of the 6-min testing period.
Data obtained were expressed as mean ± SEM and analyzed by analysis of variance (ANOVA) followed by Bonferroni’s test. p-values less than 0.05 (p < 0.05) were used as the significant level. The percent of inhibition was determined using the following formula: Inhibition (%) = 100 × [(control − experiment) / control].

hERG potassium channel [2] = target: T1, hERG potassium channel (Homo sapiens, UniProt Q12809); experiment: in vitro
hERG potassium channel [3] = target: T1, hERG potassium channel; experiment: hERG inhibition, automated QPatch patch clamp in CHO cells stably expressing hERG

T1 sequence (Q12809 whole entry): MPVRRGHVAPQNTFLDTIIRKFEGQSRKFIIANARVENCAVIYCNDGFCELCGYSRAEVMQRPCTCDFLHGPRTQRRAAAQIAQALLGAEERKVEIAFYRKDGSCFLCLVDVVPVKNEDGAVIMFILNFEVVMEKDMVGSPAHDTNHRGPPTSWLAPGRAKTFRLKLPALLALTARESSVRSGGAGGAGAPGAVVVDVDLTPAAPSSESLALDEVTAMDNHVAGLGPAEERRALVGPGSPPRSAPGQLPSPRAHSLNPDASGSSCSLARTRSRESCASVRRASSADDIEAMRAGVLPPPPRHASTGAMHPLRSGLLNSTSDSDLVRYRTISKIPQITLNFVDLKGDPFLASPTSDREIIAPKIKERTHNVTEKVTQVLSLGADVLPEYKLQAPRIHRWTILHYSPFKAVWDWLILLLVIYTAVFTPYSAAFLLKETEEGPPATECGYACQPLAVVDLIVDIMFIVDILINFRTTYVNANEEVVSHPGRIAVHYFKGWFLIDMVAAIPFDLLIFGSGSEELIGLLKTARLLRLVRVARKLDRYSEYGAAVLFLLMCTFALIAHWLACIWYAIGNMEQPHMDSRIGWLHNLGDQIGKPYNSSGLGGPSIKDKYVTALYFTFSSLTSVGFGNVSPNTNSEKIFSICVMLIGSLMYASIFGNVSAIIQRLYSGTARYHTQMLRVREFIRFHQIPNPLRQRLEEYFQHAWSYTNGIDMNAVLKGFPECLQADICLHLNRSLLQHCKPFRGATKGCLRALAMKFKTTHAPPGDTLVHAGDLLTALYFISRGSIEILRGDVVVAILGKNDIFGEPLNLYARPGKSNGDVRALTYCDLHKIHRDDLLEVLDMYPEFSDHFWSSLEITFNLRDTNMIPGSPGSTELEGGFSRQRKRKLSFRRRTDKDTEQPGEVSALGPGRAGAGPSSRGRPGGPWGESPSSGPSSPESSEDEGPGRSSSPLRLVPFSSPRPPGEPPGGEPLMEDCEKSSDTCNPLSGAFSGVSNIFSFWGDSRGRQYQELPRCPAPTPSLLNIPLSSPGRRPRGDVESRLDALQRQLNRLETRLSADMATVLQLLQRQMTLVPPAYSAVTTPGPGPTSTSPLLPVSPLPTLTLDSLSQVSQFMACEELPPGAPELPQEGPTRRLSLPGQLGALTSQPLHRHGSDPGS

Row | melting point [°C] | Compound | inhibition in vivo at 10 mg/kg [1] [%] | Antidepressant activity compared with laetispicine (in words) [1] | inhibition at 1 µM (hERG potassium channel [2]) [%] | inhibition at 10 µM (hERG potassium channel [2]) [%] | inhibition at 100 µM (hERG potassium channel [2]) [%] | IC50 (hERG potassium channel [3]) [µM] | inhibition at 1 µM (hERG potassium channel [3]; human, CHO cells stably expressing hERG) [%]
1 | 72 to 73 | COc1cc(C/C=C/CCC/C=C/C=C/C(=O)NCC(C)C)cc(OC)c1OC [Compound 1e, N-Isobutyl-11-(3,4,5-trimethoxyphenyl)undeca-2E,4E,9E-trienamide] | 27 | less antidepressant activities than laetispicine | – | – | – | – | –
2 | – | CC(C)CNC(=O)/C=C/C=C/CCC/C=C/Cc1ccc(Cl)cc1 [Compound 1h, N-Isobutyl-11-(4-chlorophenyl)undeca-2E,4E,9E-trienamide] | 52 | better antidepressant activities than that of laetispicine | 8 ± 2.3 | 13.9 ± 2 | 24.2 ± 4.9 | > 100 | –
3 | – | CNCCC(Oc1ccc(C(F)(F)F)cc1)c1ccccc1 (stereo not shown) [Fluoxetine, fluoxetine, reference compound] | 0 | – | – | – | – | – | –
4 | 69 to 72 | CC(C)CNC(=O)/C=C/C=C/CCC/C=C/Cc1ccc2c(c1)OCCO2 [Compound 1g, N-Isobutyl-11-(2,3-dihydrobenzo [1, 4]dioxin-6-yl)undeca-2E,4E,9E-trienamide] | 29 | less antidepressant activities than laetispicine | – | – | – | – | –
5 | – | CC(C)CNC(=O)/C=C/C=C/CCC/C=C/Cc1ccc2c(c1)OCO2 [Laetispicine (1a), Laetispicine] | 33 | – | – | – | – | – | –
6 | – | CC(C)CNC(=O)/C=C/C=C/CCC/C=C/Cc1ccc2c(c1)CCO2 [Compound 1f, N-Isobutyl-11-(2,3-dihydrobenzofuran-5-yl)undeca-2E,4E,9E-trienamide] | 5 | lost their antidepressant activities entirely | – | – | – | – | –
7 | 80 to 82 | CC(C)CNC(=O)/C=C/C=C/CCC/C=C/Cc1ccccc1 [Compound 1b, N-Isobutyl-11-phenylundeca-2E,4E,9E-trienamide] | 39 | – | – | – | – | – | –
8 | 75 to 77 | CC(C)CNC(=O)/C=C/C=C/CCC/C=C/Cc1ccc(F)cc1 [Compound 1i, N-isobutyl-11-(4-fluorophenyl)undeca-2E,4E,9E-trienamide] | 43 | better antidepressant activities than that of laetispicine | 7.1 ± 0.7 | 10.7 ± 0.1 | 17.7 ± 1.5 | > 100 | –
9 | 61 to 63 | COc1ccc(C/C=C/CCC/C=C/C=C/C(=O)NCC(C)C)cc1OC [Compound 1d, N-Isobutyl-11-(3,4-dimethoxyphenyl)undeca-2E,4E,9E-trienamide] | 6 | lost their antidepressant activities entirely | – | – | – | – | –
10 | – | COc1cc(N)c(Cl)cc1C(=O)NC1CCN(CCCOc2ccc(F)cc2)CC1OC (stereo not shown) [Cisapride, reference compound] | – | – | – | – | – | – | 97.9 ± 0.5
11 | – | COc1ccc(C/C=C/CCC/C=C/C=C/C(=O)NCC(C)C)cc1 [Compound 1c, N-Isobutyl-11-(4-methoxyphenyl)undeca-2E,4E,9E-trienamide] | 5 | lost their antidepressant activities entirely | – | – | – | – | –
